Data reported in US20240092784A1, “CONDENSED HETEROCYCLIC COMPOUND” (NISSAN CHEMICAL CORPORATION, priority 2020, published 2024).
pIC50: −log10 of the molar value.

These compounds were tested against human SPR (Homo sapiens (Human), UniProt P35270) (assay: Evaluation Example 2: Measurement of human SPR inhibitory activity (seven concentrations, sepiapterin absorbance at 420 nm)). Conditions: sepiapterin absorbance, Table 41, read-out: concentration at 50% inhibition of human SPR (IC50).
Type: biochemical
In short: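 Reactions ran 240 min at room temperature in 100 mM Tris-HCl pH 7.5 with 0.01% BSA. They contained tag-cleaved, E. coli-expressed full-length human SPR (diluted to 150 ng/mL), seven compound concentrations from 0.14 to 100 nM, and sepiapterin/NADPH added as a 120 μM/160 μM solution. Inhibition was calculated from sepiapterin absorbance at 420 nm.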

Sequence of human SPR (P35270 whole entry): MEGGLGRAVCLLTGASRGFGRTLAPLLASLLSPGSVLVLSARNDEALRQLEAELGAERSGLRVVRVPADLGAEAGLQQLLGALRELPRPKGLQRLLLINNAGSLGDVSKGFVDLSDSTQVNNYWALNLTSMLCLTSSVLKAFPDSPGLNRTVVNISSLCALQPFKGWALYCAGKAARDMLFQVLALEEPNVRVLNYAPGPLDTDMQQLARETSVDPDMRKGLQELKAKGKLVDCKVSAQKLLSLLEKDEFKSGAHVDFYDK

SMILES	pIC50
CC(C)Cn1c(=O)c(C(=O)NC2CC2)c(O)n2ncc(/C=C/C(=O)N(C)Cc3ncccn3)c12 [Synthesis Example 711, (E)-N-Cyclopropyl-7-hydroxy-4-isobutyl-3-(3-(methyl(pyrimidin-2-ylmethyl)amino)-3-oxoprop-1-en-1-yl)-5-oxo-4,5-dihydropyrazolo[1,5-a]pyrimidine-6-carboxamide]	8.92
CC(C)Cn1c(=O)c(C(=O)NC2CC2)c(O)n2ncc(/C=C/C(=O)N(C)Cc3cccnc3)c12 [Synthesis Example 712, (E)-N-Cyclopropyl-7-hydroxy-4-isobutyl-3-(3-(methyl(pyridin-3-ylmethyl)amino)-3-oxoprop-1-en-1-yl)-5-oxo-4,5-dihydropyrazolo[1,5-a]pyrimidine-6-carboxamide]	8.92
CC(C)Cn1c(=O)c(C(=O)NC2CC2)c(O)n2ncc(/C=C/C(=O)N3CCN(C)C[C@@H]3C)c12 [Synthesis Example 713, (S,E)-N-Cyclopropyl-3-(3-(2,4-dimethylpiperazin-1-yl)-3-oxoprop-1-en-1-yl)-7-hydroxy-4-isobutyl-5-oxo-4,5-dihydropyrazolo[1,5-a]pyrimidine-6-carboxamide]	9.02
CC(C)Cn1c(=O)c(C(=O)NC2CC2)c(O)n2ncc(/C=C/C(=O)N3CCN(CC4CC(F)(F)C4)CC3)c12 [Synthesis Example 714, (E)-N-Cyclopropyl-3-(3-(4-((3,3-difluorocyclobutyl)methyl)piperazin-1-yl)-3-oxoprop-1-en-1-yl)-7-hydroxy-4-isobutyl-5-oxo-4,5-dihydropyrazolo[1,5-a]pyrimidine-6-carboxamide]	8.60
CC(C)Cn1c(=O)c(C(=O)NC2CC2)c(O)n2ncc(/C=C/C(=O)N3CCN(C4CC(F)(F)C4)C[C@H]3C)c12 [Synthesis Example 715, (R,E)-N-Cyclopropyl-3-(3-(4-(3,3-difluorocyclobutyl)-2-methylpiperazin-1-yl)-3-oxoprop-1-en-1-yl)-7-hydroxy-4-isobutyl-5-oxo-4,5-dihydropyrazolo[1,5-a]pyrimidine-6-carboxamide]	8.89
CC(C)Cn1c(=O)c(C(=O)NC2CC2)c(O)n2ncc(/C=C/C(=O)N3C[C@@H](C)OC[C@H]3C)c12 [Synthesis Example 716, N-Cyclopropyl-3-((E)-3-((2R,5R)-2,5-dimethylmorpholino)-3-oxoprop-1-en-1-yl)-7-hydroxy-4-isobutyl-5-oxo-4,5-dihydropyrazolo[1,5-a]pyrimidine-6-carboxamide]	9.06
CC(C)Cn1c(=O)c(C(=O)NC2CC2)c(O)n2ncc(/C=C/C(=O)N3C[C@H](C)OC[C@@H]3C)c12 [Synthesis Example 717, N-Cyclopropyl-3-((E)-3-((2S,5S)-2,5-dimethylmorpholino)-3-oxoprop-1-en-1-yl)-7-hydroxy-4-isobutyl-5-oxo-4,5-dihydropyrazolo[1,5-a]pyrimidine-6-carboxamide]	9.11
CC(C)Cn1c(=O)c(C(=O)NC2CC2)c(O)n2ncc(/C=C/C(=O)N3C[C@H](C)OC[C@H]3C)c12 [Synthesis Example 718, N-Cyclopropyl-3-((E)-3-((2S,5R)-2,5-dimethylmorpholino)-3-oxoprop-1-en-1-yl)-7-hydroxy-4-isobutyl-5-oxo-4,5-dihydropyrazolo[1,5-a]pyrimidine-6-carboxamide]	9.13
CC(C)Cn1c(=O)c(C(=O)NC2CC2)c(O)n2ncc(/C=C/C(=O)N3C4CCC3CC(F)(F)C4)c12 [Synthesis Example 719, (E)-N-Cyclopropyl-3-(3-(3,3-difluoro-8-azabicyclo[3.2.1]octan-8-yl)-3-oxoprop-1-en-1-yl)-7-hydroxy-4-isobutyl-5-oxo-4,5-dihydropyrazolo[1,5-a]pyrimidine-6-carboxamide]	9.11
CC(C)Cn1c(=O)c(C(=O)NC2CC2)c(O)n2ncc(/C=C/C(=O)N3CC4CCC(C3)C4(F)F)c12 [Synthesis Example 720, (E)-N-Cyclopropyl-3-(3-(8,8-difluoro-3-azabicyclo[3.2.1]octan-3-yl)-3-oxoprop-1-en-1-yl)-7-hydroxy-4-isobutyl-5-oxo-4,5-dihydropyrazolo[1,5-a]pyrimidine-6-carboxamide]	8.99
